{"source": "PubChem BioAssay (NCI)", "assay_in_all_cases": "DTP human tumour cell line panel, 48 h", "key": {"SK-MEL-5 melanoma": {"test_system": "SK-MEL-5 melanoma"}, "SK-MEL-2 melanoma": {"test_system": "SK-MEL-2 melanoma"}, "HCT-116 colon": {"test_system": "HCT-116 colon"}, "HT29 colon": {"test_system": "HT29 colon"}, "MDA-MB-231 breast": {"test_system": "MDA-MB-231 breast"}, "KM12 colon": {"test_system": "KM12 colon"}, "SF-268 CNS": {"test_system": "SF-268 CNS"}, "UO-31 renal": {"test_system": "UO-31 renal"}, "SNB-19 CNS": {"test_system": "SNB-19 CNS"}, "COLO 205 colon": {"test_system": "COLO 205 colon"}, "HS 578T breast": {"test_system": "HS 578T breast"}, "IGROV1 ovarian": {"test_system": "IGROV1 ovarian"}, "UACC-257 melanoma": {"test_system": "UACC-257 melanoma"}, "OVCAR-8 ovarian": {"test_system": "OVCAR-8 ovarian"}, "LOX IMVI melanoma": {"test_system": "LOX IMVI melanoma"}, "NCI-H522 lung": {"test_system": "NCI-H522 lung"}, "MDA-MB-435": {"test_system": "MDA-MB-435"}, "T-47D breast": {"test_system": "T-47D breast"}, "SW-620 colon": {"test_system": "SW-620 colon"}, "SR leukemia": {"test_system": "SR leukemia"}, "CAKI-1 renal": {"test_system": "CAKI-1 renal"}, "HL-60(TB) leukemia": {"test_system": "HL-60(TB) leukemia"}, "A498 renal": {"test_system": "A498 renal"}, "HCT-15 colon": {"test_system": "HCT-15 colon"}, "SF-295 CNS": {"test_system": "SF-295 CNS"}, "OVCAR-4 ovarian": {"test_system": "OVCAR-4 ovarian"}, "MDA-N": {"test_system": "MDA-N"}, "U251 CNS": {"test_system": "U251 CNS"}, "M14 melanoma": {"test_system": "M14 melanoma"}, "SN12C renal": {"test_system": "SN12C renal"}, "MCF7 breast": {"test_system": "MCF7 breast"}, "UACC-62 melanoma": {"test_system": "UACC-62 melanoma"}, "HCC-2998 colon": {"test_system": "HCC-2998 colon"}, "NCI-H23 lung": {"test_system": "NCI-H23 lung"}, "NCI-H460 lung": {"test_system": "NCI-H460 lung"}, "NCI-H226 lung": {"test_system": "NCI-H226 lung"}, "ACHN renal": {"test_system": "ACHN renal"}, "CCRF-CEM leukemia": {"test_system": "CCRF-CEM leukemia"}, "OVCAR-3 ovarian": {"test_system": "OVCAR-3 ovarian"}, "A549 NSCLC": {"test_system": "A549 NSCLC"}, "SNB-75 CNS": {"test_system": "SNB-75 CNS"}, "BT-549 breast": {"test_system": "BT-549 breast"}, "786-0 renal": {"test_system": "786-0 renal"}, "K-562 leukemia": {"test_system": "K-562 leukemia"}, "DU-145 prostate": {"test_system": "DU-145 prostate"}, "RXF 393 renal": {"test_system": "RXF 393 renal"}, "SF-539 CNS": {"test_system": "SF-539 CNS"}, "MOLT-4 leukemia": {"test_system": "MOLT-4 leukemia"}, "OVCAR-5 ovarian": {"test_system": "OVCAR-5 ovarian"}, "SK-MEL-28 melanoma": {"test_system": "SK-MEL-28 melanoma"}, "NCI/ADR-RES ovarian": {"test_system": "NCI/ADR-RES ovarian"}, "TK-10 renal": {"test_system": "TK-10 renal"}, "RPMI-8226 leukemia": {"test_system": "RPMI-8226 leukemia"}, "MALME-3M melanoma": {"test_system": "MALME-3M melanoma"}, "EKVX NSCLC": {"test_system": "EKVX NSCLC"}, "SK-OV-3 ovarian": {"test_system": "SK-OV-3 ovarian"}, "HOP-92 NSCLC": {"test_system": "HOP-92 NSCLC"}, "PC-3 prostate": {"test_system": "PC-3 prostate"}, "HOP-62 NSCLC": {"test_system": "HOP-62 NSCLC"}}, "note": "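Step 1: Grow cells in 96-well plates. Step 2: Expose to compound for 48 hours at 5 concentrations. Step 3: Interpolate endpoints linearly; if unreached, use highest concentration. TGI: concentration producing complete growth inhibition.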", "data": [{"smiles": "CCCOc1cc2c(cc1O)CC[C@@H]1[C@@H]2CC[C@]2(C)[C@@H](O)CC[C@@H]12", "values": [{"measurement": "TGI", "setting": "SK-MEL-5 melanoma", "result": 12.1, "unit": "µM"}, {"measurement": "TGI", "setting": "SK-MEL-2 melanoma", "result": 11.3, "unit": "µM"}, {"measurement": "TGI", "setting": "HCT-116 colon", "result": 42, "unit": "µM"}, {"measurement": "TGI", "setting": "HT29 colon", "result": 25.9, "unit": "µM"}, {"measurement": "TGI", "setting": "MDA-MB-231 breast", "result": 27.7, "unit": "µM"}, {"measurement": "TGI", "setting": "KM12 colon", "result": "> 55.5", "unit": "µM"}, {"measurement": "TGI", "setting": "SF-268 CNS", "result": "> 59.7", "unit": "µM"}, {"measurement": "TGI", "setting": "UO-31 renal", "result": "> 57.2", "unit": "µM"}, {"measurement": "TGI", "setting": "SNB-19 CNS", "result": "> 100", "unit": "µM"}, {"measurement": "TGI", "setting": "COLO 205 colon", "result": 30, "unit": "µM"}, {"measurement": "TGI", "setting": "HS 578T breast", "result": 11.3, "unit": "µM"}, {"measurement": "TGI", "setting": "IGROV1 ovarian", "result": "> 100", "unit": "µM"}, {"measurement": "TGI", "setting": "UACC-257 melanoma", "result": "> 58.7", "unit": "µM"}, {"measurement": "TGI", "setting": "OVCAR-8 ovarian", "result": "> 59.1", "unit": "µM"}, {"measurement": "TGI", "setting": "LOX IMVI melanoma", "result": 34.5, "unit": "µM"}, {"measurement": "TGI", "setting": "NCI-H522 lung", "result": 3.52, "unit": "µM"}, {"measurement": "TGI", "setting": "MDA-MB-435", "result": 5.91, "unit": "µM"}, {"measurement": "TGI", "setting": "T-47D breast", "result": "> 45", "unit": "µM"}, {"measurement": "TGI", "setting": "SW-620 colon", "result": "> 35.5", "unit": "µM"}, {"measurement": "TGI", "setting": "SR leukemia", "result": 16.7, "unit": "µM"}, {"measurement": "TGI", "setting": "CAKI-1 renal", "result": 23.5, "unit": "µM"}, {"measurement": "TGI", "setting": "HL-60(TB) leukemia", "result": 18.9, "unit": "µM"}, {"measurement": "TGI", "setting": "A498 renal", "result": 20.7, "unit": "µM"}, {"measurement": "TGI", "setting": "HCT-15 colon", "result": "> 35.3", "unit": "µM"}, {"measurement": "TGI", "setting": "SF-295 CNS", "result": 14.7, "unit": "µM"}, {"measurement": "TGI", "setting": "OVCAR-4 ovarian", "result": "> 65.5", "unit": "µM"}, {"measurement": "TGI", "setting": "MDA-N", "result": 2.14, "unit": "µM"}, {"measurement": "TGI", "setting": "U251 CNS", "result": 34.2, "unit": "µM"}, {"measurement": "TGI", "setting": "M14 melanoma", "result": 36.8, "unit": "µM"}, {"measurement": "TGI", "setting": "SN12C renal", "result": 37.8, "unit": "µM"}, {"measurement": "TGI", "setting": "MCF7 breast", "result": 37.2, "unit": "µM"}, {"measurement": "TGI", "setting": "UACC-62 melanoma", "result": 30.8, "unit": "µM"}, {"measurement": "TGI", "setting": "HCC-2998 colon", "result": 17.6, "unit": "µM"}, {"measurement": "TGI", "setting": "NCI-H23 lung", "result": "> 55.5", "unit": "µM"}, {"measurement": "TGI", "setting": "NCI-H460 lung", "result": 26.5, "unit": "µM"}, {"measurement": "TGI", "setting": "NCI-H226 lung", "result": 55, "unit": "µM"}, {"measurement": "TGI", "setting": "ACHN renal", "result": "> 56.2", "unit": "µM"}, {"measurement": "TGI", "setting": "CCRF-CEM leukemia", "result": "> 37.4", "unit": "µM"}, {"measurement": "TGI", "setting": "OVCAR-3 ovarian", "result": "> 46.2", "unit": "µM"}, {"measurement": "TGI", "setting": "A549 NSCLC", "result": "> 56.3", "unit": "µM"}, {"measurement": "TGI", "setting": "SNB-75 CNS", "result": 32.4, "unit": "µM"}, {"measurement": "TGI", "setting": "BT-549 breast", "result": 20.1, "unit": "µM"}, {"measurement": "TGI", "setting": "786-0 renal", "result": 30.5, "unit": "µM"}, {"measurement": "TGI", "setting": "K-562 leukemia", "result": 5.33, "unit": "µM"}, {"measurement": "TGI", "setting": "DU-145 prostate", "result": 27.2, "unit": "µM"}, {"measurement": "TGI", "setting": "RXF 393 renal", "result": 10.4, "unit": "µM"}, {"measurement": "TGI", "setting": "SF-539 CNS", "result": 4.44, "unit": "µM"}, {"measurement": "TGI", "setting": "MOLT-4 leukemia", "result": 14.2, "unit": "µM"}, {"measurement": "TGI", "setting": "OVCAR-5 ovarian", "result": "> 65.4", "unit": "µM"}, {"measurement": "TGI", "setting": "SK-MEL-28 melanoma", "result": "> 50.4", "unit": "µM"}, {"measurement": "TGI", "setting": "NCI/ADR-RES ovarian", "result": 39, "unit": "µM"}, {"measurement": "TGI", "setting": "TK-10 renal", "result": 54.7, "unit": "µM"}, {"measurement": "TGI", "setting": "RPMI-8226 leukemia", "result": 23.7, "unit": "µM"}, {"measurement": "TGI", "setting": "MALME-3M melanoma", "result": "> 100", "unit": "µM"}, {"measurement": "TGI", "setting": "EKVX NSCLC", "result": "> 57.7", "unit": "µM"}, {"measurement": "TGI", "setting": "SK-OV-3 ovarian", "result": 50.5, "unit": "µM"}, {"measurement": "TGI", "setting": "HOP-92 NSCLC", "result": "> 60.4", "unit": "µM"}, {"measurement": "TGI", "setting": "PC-3 prostate", "result": "> 51.6", "unit": "µM"}, {"measurement": "TGI", "setting": "HOP-62 NSCLC", "result": 14.1, "unit": "µM"}]}]}
